Assay results taken from paper PMC12281424, “A Rac-specific competitive inhibitor of guanine nucleotide binding reduces metastasis in triple-negative breast cancer” (Cell Reports Medicine, 2025).

Assays:
MST2(h) = MST2(h) (Homo sapiens, UniProt Q13188); test: Kinase Profiler; assay type: biochemical
Method: (§1) Blood cell counts, kinase profiler, safety screen, bacterial cytotoxicity, Ames, micronucleus assays were performed by the company Eurofins (France). The kinase profiler was performed by the company Eurofins (Discovery, Panlab and Cerep).

MELK(h) = MELK(h) (Homo sapiens, UniProt Q14680); test: Kinase Profiler; assay type: biochemical
Method: (§2) The kinase profiler was performed by the company Eurofins (Discovery, Panlab and Cerep).

MDA-MB-468 Luc cells = test: Orthotopic breast cancer (TNBC xenograft) model; assay type: in vivo, mouse; conditions: 25 mg/kg/day i.p.
Method: The anti-metastatic potential of A41 was assessed in a TNBC xenograft model by orthotopic injection of MDA-MB-468 Luc cells into the mammary fat pad of […] Nordic Medical Research Institute (NMRI) nude mice randomized in 2 groups. The tumor grows gradually over time. At the 50th day post grafting, when a volume of ∼1,000 mm^3 was reached, the tumor was resected, which corresponded to tumor mass of approximately 0.6 g (Figure S8A). Mice were then treated with A41 (25 mg/kg/day, intraperitoneally; group 2) or vehicle for 4 weeks (group 1).
Figure 6 A41 decreases metastasis of TNBC cells in vivo (A) Representative images of luciferase bioluminescence intensities (BLI) in whole body, legs, and ovaries/uterus 4 weeks after resection of MD1-MB-468 Luc tumor in NMRI nude mice not treated (control) and treated with A41 (25 mg/kg/day, intraperitoneally for 4 weeks). (B) Metastasis frequency quantification based on ex vivo BLI measurements in indicated organs from control (black bars) and A41-treated mice 4 weeks after tumor resection (white bars) (N = 10–15 mice; ∗p < 0.05 vs. controls). (C) BLI quantification in legs and ovaries/uterus from control (black squares) and A41-treated (white squares) NMRI nude mice 4 weeks after tumor resection (N = 10–15 mice; ∗p < 0.05 vs. controls). (D) Cumulative proportion of immunocompetent control (red) and A41-treated mice (blue) displaying regrowth of the primary tumor after its resection. (E) Metastasis frequency quantified from ex vivo BLI measurements in leg bones, lungs, kidneys, and ovaries/uterus from immunocompetent control (black bar) and A41-treated (white bar) mice (N = 10 mice; ∗p < 0.05 vs. control). (F) Survival curve of immunocompetent control (red) and A41-treated mice (blue) after primary tumor resection (day 0).
Orthotopic cell xenograft was performed by injection of 4 million MDA-MB-468Luc cells in the fourth fat pad from 5-week-old NMRI nude mice. Primary tumour was allowed to develop during 5 weeks and tumour growth was assessed by tumour volume measurement using a caliper. Primary tumor was then removed by surgical exeresis and weighed. Treatments began 1 day before exeresis. A41 (25 mg/kg) was administered intraperitoneally on a daily basis during 4 weeks. Mice were weighed 5 times a week and in vivo bioluminescence intensities were measured once a week (Imager PerkinElmer IVIS spectrum bioluminescence imager). At the end of the protocol, mice were sacrificed and ex vivo bioluminescence intensities of indicated organs (legs, ovaries, uterus, lungs and liver) were measured within 15 min of D-luciferin intraperitoneal injection (150 mg kg−1). Photons emitted by cancer cells were counted by bioluminescent imaging and expressed in counts per minute (c.p.m.).

[1] = test system: Calcium Channel L-Type, Phenylalkylamine; test: Safety screen; assay type: binding, rat
EphA1(h) = EphA1(h) (Homo sapiens, UniProt P21709); test: Kinase Profiler; assay type: biochemical
Method: as §2

PIP5K1a(h) = PIP5K1a(h) (Homo sapiens, UniProt Q99755); test: Kinase Profiler; assay type: biochemical
Method: as §2

TTK(h) = TTK(h) (Homo sapiens, UniProt P33981); test: Kinase Profiler; assay type: biochemical
Method: as §2

CDK7/cyclinH/MAT1(h) = CDK7/cyclinH/MAT1(h) (Homo sapiens, UniProt P50613); test: Kinase Profiler; assay type: biochemical
Method: as §1

MKK3(h) = MKK3(h) (Homo sapiens, UniProt P46734); test: Kinase Profiler; assay type: biochemical
Method: as §2

CaMKIV(h) = CaMKIV(h) (Homo sapiens, UniProt Q16566); test: Kinase Profiler; assay type: biochemical
Method: as §2

MLCK(h) = MLCK(h) (Homo sapiens, UniProt Q15746); test: Kinase Profiler; assay type: biochemical
Method: as §1

AAK1(h) = AAK1(h) (Homo sapiens, UniProt Q2M2I8); test: Kinase Profiler; assay type: biochemical
Method: as §2

CLK1(h) = CLK1(h) (Homo sapiens, UniProt P49759); test: Kinase Profiler; assay type: biochemical
Method: as §2

Flt3(D835Y)(h) = Flt3(D835Y)(h) (Homo sapiens, UniProt P36888, D835Y); test: Kinase Profiler; assay type: biochemical
Method: as §2

MRCKβ(h) = MRCKβ(h) (Homo sapiens, UniProt Q9Y5S2); test: Kinase Profiler; assay type: biochemical
Method: as §2

NEK7(h) = NEK7(h) (Homo sapiens, UniProt Q8TDX7); test: Kinase Profiler; assay type: biochemical
Method: as §2

TAF1L(h) = TAF1L(h) (Homo sapiens, UniProt Q8IZX4); test: Kinase Profiler; assay type: biochemical
Method: as §2

Potassium Channel [KATP] = Potassium Channel [KATP] (Cricetus cricetus, UniProt Q09427); test: Safety screen; assay type: binding, hamster
Method: as §1

TSSK4(h) = TSSK4(h) (Homo sapiens, UniProt Q6SA08); test: Kinase Profiler; assay type: biochemical
Method: as §2

Plk4(h) = Plk4(h) (Homo sapiens, UniProt O00444); test: Kinase Profiler; assay type: biochemical
Method: as §1

EphB4(h) = EphB4(h) (Homo sapiens, UniProt P54760); test: Kinase Profiler; assay type: biochemical
Method: as §1

Arg(h) = Arg(h) (Homo sapiens, UniProt P42684); test: Kinase Profiler; assay type: biochemical
Method: as §1

RIPK2(h) = RIPK2(h) (Homo sapiens, UniProt O43353); test: Kinase Profiler; assay type: biochemical
Method: as §2

Met(Y1248H)(h) = Met(Y1248H)(h) (Homo sapiens, UniProt P08581, Y1230H); test: Kinase Profiler; assay type: biochemical
Method: as §2

[2] = target: Serotonin (5-Hydroxytryptamine) 5-HT2B (Homo sapiens, UniProt P41595); test: Safety screen; assay type: binding
Method: Blood cell counts, kinase profiler, safety screen, bacterial cytotoxicity, Ames, micronucleus assays were performed by the company Eurofins (France).

PDGFRα(D842V)(h) = PDGFRα(D842V)(h) (Homo sapiens, UniProt P16234, D842V); test: Kinase Profiler; assay type: biochemical
Method: as §2

TTK(h), sequence (P33981 whole entry): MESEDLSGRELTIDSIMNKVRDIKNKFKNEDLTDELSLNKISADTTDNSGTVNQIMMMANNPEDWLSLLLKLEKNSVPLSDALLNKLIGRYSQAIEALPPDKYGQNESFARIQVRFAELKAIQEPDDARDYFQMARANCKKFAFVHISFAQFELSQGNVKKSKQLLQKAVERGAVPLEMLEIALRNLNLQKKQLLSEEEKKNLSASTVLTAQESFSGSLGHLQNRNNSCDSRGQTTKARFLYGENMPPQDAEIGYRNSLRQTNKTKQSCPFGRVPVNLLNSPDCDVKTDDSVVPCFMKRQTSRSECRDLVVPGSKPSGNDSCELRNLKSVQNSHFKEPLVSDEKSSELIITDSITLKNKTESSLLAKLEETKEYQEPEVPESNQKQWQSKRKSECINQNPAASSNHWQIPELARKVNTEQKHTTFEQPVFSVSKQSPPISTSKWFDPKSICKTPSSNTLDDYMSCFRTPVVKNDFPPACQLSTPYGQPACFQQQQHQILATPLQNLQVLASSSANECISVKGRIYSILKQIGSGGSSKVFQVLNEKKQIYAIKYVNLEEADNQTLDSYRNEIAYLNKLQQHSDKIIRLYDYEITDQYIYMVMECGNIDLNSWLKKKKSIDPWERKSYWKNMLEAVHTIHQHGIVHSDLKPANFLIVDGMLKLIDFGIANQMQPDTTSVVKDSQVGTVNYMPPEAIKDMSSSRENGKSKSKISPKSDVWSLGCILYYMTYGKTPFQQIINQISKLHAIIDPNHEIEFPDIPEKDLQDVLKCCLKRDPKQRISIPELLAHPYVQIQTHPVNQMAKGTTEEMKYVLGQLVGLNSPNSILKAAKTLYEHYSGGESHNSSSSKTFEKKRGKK
MLCK(h), sequence (Q15746 whole entry): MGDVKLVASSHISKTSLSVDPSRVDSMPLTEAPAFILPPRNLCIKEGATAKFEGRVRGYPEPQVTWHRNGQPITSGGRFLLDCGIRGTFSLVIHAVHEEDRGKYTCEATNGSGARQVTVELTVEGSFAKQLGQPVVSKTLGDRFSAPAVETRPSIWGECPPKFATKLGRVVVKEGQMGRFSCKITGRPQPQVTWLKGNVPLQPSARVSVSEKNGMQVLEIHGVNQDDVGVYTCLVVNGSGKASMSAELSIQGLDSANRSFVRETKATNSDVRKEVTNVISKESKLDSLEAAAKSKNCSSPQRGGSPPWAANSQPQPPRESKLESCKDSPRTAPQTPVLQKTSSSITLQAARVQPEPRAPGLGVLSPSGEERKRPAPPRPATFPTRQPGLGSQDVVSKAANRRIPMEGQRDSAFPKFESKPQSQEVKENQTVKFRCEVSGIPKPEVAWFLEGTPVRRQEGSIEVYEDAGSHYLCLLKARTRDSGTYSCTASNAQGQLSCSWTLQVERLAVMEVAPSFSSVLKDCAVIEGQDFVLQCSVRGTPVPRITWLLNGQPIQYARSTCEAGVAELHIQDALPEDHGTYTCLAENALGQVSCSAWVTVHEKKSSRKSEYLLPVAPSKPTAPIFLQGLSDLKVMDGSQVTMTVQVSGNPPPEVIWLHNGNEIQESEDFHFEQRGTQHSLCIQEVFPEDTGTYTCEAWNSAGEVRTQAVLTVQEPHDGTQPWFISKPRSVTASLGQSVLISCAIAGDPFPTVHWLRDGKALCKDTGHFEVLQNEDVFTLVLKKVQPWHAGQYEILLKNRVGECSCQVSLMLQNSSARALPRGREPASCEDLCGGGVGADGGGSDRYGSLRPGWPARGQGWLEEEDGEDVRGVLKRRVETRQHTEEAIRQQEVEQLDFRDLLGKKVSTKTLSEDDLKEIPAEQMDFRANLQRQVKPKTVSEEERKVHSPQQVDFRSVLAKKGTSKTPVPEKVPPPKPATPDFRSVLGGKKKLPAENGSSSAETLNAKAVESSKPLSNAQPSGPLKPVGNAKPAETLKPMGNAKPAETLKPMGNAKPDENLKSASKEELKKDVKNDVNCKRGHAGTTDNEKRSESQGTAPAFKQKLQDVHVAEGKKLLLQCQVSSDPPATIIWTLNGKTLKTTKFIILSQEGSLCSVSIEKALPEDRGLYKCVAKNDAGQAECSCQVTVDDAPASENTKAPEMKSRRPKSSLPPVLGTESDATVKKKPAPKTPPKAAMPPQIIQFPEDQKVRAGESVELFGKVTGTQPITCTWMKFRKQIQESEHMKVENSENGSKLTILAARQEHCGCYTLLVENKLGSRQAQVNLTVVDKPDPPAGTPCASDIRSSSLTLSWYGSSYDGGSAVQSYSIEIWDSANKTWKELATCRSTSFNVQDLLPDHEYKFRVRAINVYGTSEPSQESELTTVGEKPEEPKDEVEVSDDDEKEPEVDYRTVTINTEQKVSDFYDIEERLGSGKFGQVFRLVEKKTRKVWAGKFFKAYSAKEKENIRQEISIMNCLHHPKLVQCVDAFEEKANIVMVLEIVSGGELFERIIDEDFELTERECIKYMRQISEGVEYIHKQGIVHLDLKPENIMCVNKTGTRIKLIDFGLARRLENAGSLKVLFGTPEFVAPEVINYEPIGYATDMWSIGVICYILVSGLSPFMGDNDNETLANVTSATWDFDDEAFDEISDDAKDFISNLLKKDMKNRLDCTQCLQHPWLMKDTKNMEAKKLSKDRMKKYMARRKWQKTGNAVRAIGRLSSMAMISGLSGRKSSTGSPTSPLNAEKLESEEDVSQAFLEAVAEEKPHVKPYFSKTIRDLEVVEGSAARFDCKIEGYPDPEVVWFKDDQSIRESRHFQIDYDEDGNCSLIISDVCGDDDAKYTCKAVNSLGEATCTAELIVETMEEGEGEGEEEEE
CLK1(h), sequence (P49759 whole entry): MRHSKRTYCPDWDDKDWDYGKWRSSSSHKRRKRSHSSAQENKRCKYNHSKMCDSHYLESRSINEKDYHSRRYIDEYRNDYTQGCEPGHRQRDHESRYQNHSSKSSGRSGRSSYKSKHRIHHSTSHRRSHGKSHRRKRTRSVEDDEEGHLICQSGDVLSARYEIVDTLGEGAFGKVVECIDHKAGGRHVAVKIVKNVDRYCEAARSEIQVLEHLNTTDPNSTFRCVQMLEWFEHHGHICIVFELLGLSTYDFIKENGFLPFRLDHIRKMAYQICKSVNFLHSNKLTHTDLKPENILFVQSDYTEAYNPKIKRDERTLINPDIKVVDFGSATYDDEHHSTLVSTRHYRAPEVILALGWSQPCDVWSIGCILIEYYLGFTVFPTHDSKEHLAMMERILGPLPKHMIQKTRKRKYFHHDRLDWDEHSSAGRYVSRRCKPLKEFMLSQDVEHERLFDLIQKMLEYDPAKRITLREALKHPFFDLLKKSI
RIPK2(h), sequence (O43353 whole entry): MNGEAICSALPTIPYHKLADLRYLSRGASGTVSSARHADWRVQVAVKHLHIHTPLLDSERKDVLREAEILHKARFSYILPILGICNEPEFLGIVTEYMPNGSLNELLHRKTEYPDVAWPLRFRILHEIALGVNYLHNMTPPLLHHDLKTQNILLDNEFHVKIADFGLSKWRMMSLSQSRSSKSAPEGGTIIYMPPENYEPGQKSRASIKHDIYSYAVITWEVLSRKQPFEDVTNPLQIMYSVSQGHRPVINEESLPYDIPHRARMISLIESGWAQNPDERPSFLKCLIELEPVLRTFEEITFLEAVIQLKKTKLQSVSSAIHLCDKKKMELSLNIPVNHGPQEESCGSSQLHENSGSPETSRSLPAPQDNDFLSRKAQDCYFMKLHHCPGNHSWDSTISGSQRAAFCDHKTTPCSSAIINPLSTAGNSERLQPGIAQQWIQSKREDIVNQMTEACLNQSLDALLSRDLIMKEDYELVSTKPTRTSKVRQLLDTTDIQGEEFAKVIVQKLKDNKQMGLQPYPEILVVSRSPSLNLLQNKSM
MST2(h), sequence (Q13188 whole entry): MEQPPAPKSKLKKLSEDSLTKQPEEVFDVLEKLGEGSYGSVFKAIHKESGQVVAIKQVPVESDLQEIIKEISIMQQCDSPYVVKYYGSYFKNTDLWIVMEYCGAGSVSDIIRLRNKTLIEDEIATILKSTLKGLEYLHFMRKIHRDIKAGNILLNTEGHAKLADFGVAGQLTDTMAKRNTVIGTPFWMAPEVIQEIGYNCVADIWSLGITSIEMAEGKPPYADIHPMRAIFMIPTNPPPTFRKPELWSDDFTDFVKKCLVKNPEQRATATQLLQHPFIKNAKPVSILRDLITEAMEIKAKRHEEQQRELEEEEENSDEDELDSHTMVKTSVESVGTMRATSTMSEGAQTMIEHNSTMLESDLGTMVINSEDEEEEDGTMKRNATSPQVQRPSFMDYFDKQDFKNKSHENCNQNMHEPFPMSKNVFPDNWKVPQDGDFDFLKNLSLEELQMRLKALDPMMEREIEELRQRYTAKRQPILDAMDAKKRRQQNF
Serotonin (5-Hydroxytryptamine) 5-HT2B, sequence (P41595 whole entry): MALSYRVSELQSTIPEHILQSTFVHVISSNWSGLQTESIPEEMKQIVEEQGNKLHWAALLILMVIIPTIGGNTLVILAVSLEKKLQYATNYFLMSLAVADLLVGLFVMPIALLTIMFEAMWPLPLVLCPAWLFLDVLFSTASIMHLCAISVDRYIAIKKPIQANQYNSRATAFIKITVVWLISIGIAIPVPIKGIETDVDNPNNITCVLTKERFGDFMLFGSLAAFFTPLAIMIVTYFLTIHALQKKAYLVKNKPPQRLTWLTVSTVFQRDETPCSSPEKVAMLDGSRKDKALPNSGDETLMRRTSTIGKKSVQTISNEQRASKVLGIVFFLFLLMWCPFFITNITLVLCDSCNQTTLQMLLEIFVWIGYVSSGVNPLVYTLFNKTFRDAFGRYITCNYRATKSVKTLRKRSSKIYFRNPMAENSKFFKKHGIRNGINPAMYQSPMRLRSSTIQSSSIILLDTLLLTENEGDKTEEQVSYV
NEK7(h), sequence (Q8TDX7 whole entry): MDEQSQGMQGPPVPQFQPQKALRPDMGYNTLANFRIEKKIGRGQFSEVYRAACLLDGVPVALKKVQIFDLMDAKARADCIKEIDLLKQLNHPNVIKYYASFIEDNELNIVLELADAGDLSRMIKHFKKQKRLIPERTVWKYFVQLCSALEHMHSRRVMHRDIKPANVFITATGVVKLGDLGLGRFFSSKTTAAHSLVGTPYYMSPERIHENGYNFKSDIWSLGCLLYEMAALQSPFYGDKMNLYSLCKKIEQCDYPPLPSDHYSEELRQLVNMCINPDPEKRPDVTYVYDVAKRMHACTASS

Question: What does the source list for COc1ccc(OC)c(NS(=O)(=O)c2ccc(NC(=O)CCSc3ccc(C)cc3)cc2)c1 [Compound A41]?
Answer: Activity(%) (MST2(h)): 88%; Activity(%) (MELK(h)): 107%; primary tumor regrowth (in vivo BLI) (MDA-MB-468 Luc cells; 4 weeks after resection): decrease in primary tumor regrowth; ex vivo luminescence intensity of femur, ovaries, and uterus (MDA-MB-468 Luc cells; 4 weeks post resection): significantly lower in A41-treated than in control mice; metastasis frequency (leg bones, lungs, kidneys, ovaries, uterus; ex vivo BLI) (MDA-MB-468 Luc cells; 4 weeks post resection): significantly higher frequency in control than in A41-treated mice; weight of the mice (MDA-MB-468 Luc cells; 4 weeks, vs vehicle): no difference between the two groups; % inh. [1]: 52%; Activity(%) (EphA1(h)): 87%; Activity(%) (PIP5K1a(h)): 100%; Activity(%) (TTK(h)): 103%; Activity(%) (CDK7/cyclinH/MAT1(h)): 106%; Activity(%) (MKK3(h)): 117%; Activity(%) (CaMKIV(h)): 114%; Activity(%) (MLCK(h)): 103%; Activity(%) (AAK1(h)): 105%; Activity(%) (CLK1(h)): 81%; Activity(%) (Flt3(D835Y)(h)): 101%; Activity(%) (MRCKβ(h)): 102%; Activity(%) (NEK7(h)): 97%; Activity(%) (TAF1L(h)): 110%; % inh. (Potassium Channel [KATP]): 11%; Activity(%) (TSSK4(h)): 103%; Activity(%) (Plk4(h)): 104%; Activity(%) (EphB4(h)): 112%; Activity(%) (Arg(h)): 122%; Activity(%) (RIPK2(h)): 94%; Activity(%) (Met(Y1248H)(h)): 120%; % inh. [2]: 90%; Activity(%) (PDGFRα(D842V)(h)): 112%
